# Calls of active or inactive are those of the source.
# What was measured:
# Rattus norvegicus [1] = test: (§1) Antinociceptive activity in Sprague-Dawley rat model of chronic constriction injury-induced mono-neuropathic pain assessed as reduction in mechanical allodynia by measuring paw withdrawal threshold at 1.8 mg/kg, po administered as single dose and measured 30 mins to 24 hrs post dose by Von Frey's hairs assay; assay type: functional, organism-based
# Rattus norvegicus [2] = test: Antinociceptive activity in Sprague-Dawley rat model of CFA-induced chronic inflammatory pain assessed as reduction in mechanical allodynia by measuring paw withdrawal threshold at 1.8 mg/kg, po administered as single dose and measured 30 mins to 24 hrs post dose by Von Frey's hairs assay; assay type: functional, organism-based
# [3] = target: 3',5'-cyclic-AMP phosphodiesterase 4D (Homo sapiens, UniProt Q08499); test: Inhibition of human PDE4D catalytic domain using [3H]-cAMP or [3H]-cGMP incubated for 30 mins by scintillation counting method
# Rattus norvegicus [4] = test: as §1, with “60” for “1.8”; assay type: functional, organism-based
# Rattus norvegicus [5] = test: as §1, with “200” for “1.8”; assay type: functional, organism-based
# Rattus norvegicus [6] = test: Antinociceptive activity in Sprague-Dawley rat model of CFA-induced chronic inflammatory pain assessed as reduction in mechanical allodynia by measuring paw withdrawal threshold at 60 mg/kg, po administered as single dose and measured 30 mins to 24 hrs post dose by Von Frey's hairs assay; assay type: functional, organism-based
# Rattus norvegicus [7] = test: Antinociceptive activity in Sprague-Dawley rat model of CFA-induced chronic inflammatory pain assessed as reduction in mechanical allodynia by measuring paw withdrawal threshold at 200 mg/kg, po administered as single dose and measured 30 mins to 24 hrs post dose by Von Frey's hairs assay; assay type: functional, organism-based
# Rattus norvegicus [8] = test: as §1, with “3” for “1.8”; assay type: functional, organism-based
# Rattus norvegicus [9] = test: Antinociceptive activity in Sprague-Dawley rat model of CFA-induced chronic inflammatory pain assessed as reduction in mechanical allodynia by measuring paw withdrawal threshold at 3 mg/kg, po administered as single dose and measured 30 mins to 24 hrs post dose by Von Frey's hairs assay; assay type: functional, organism-based
# Rattus norvegicus [10] = test: as §1, with “20” for “1.8”; assay type: functional, organism-based
# Rattus norvegicus [11] = test: as §1, with “2” for “1.8”; assay type: functional, organism-based
# Rattus norvegicus [12] = test: Antinociceptive activity in Sprague-Dawley rat model of CFA-induced chronic inflammatory pain assessed as reduction in mechanical allodynia by measuring paw withdrawal threshold at 20 mg/kg, po administered as single dose and measured 30 mins to 24 hrs post dose by Von Frey's hairs assay; assay type: functional, organism-based
# Rattus norvegicus [13] = test: Antinociceptive activity in Sprague-Dawley rat model of CFA-induced chronic inflammatory pain assessed as reduction in mechanical allodynia by measuring paw withdrawal threshold at 2 mg/kg, po administered as single dose and measured 30 mins to 24 hrs post dose by Von Frey's hairs assay; assay type: functional, organism-based
# Rattus norvegicus [14] = test: Antinociceptive activity in Sprague-Dawley rat model of CFA-induced chronic inflammatory pain assessed as reduction in mechanical allodynia by measuring paw withdrawal threshold at 10 mg/kg, po administered as single dose and measured 30 mins to 24 hrs post dose by Von Frey's hairs assay; assay type: functional, organism-based
# Rattus norvegicus [15] = test: as §1, with “50” for “1.8”; assay type: functional, organism-based
# Rattus norvegicus [16] = test: as §1, with “500” for “1.8”; assay type: functional, organism-based
# Rattus norvegicus [17] = test: Antinociceptive activity in Sprague-Dawley rat model of CFA-induced chronic inflammatory pain assessed as reduction in mechanical allodynia by measuring paw withdrawal threshold at 50 mg/kg, po administered as single dose and measured 30 mins to 24 hrs post dose by Von Frey's hairs assay; assay type: functional, organism-based
# Rattus norvegicus [18] = test: Antinociceptive activity in Sprague-Dawley rat model of CFA-induced chronic inflammatory pain assessed as reduction in mechanical allodynia by measuring paw withdrawal threshold at 500 mg/kg, po administered as single dose and measured 30 mins to 24 hrs post dose by Von Frey's hairs assay; assay type: functional, organism-based
# Chain of 3',5'-cyclic-AMP phosphodiesterase 4D (Q08499 whole entry, the tested form may be a part): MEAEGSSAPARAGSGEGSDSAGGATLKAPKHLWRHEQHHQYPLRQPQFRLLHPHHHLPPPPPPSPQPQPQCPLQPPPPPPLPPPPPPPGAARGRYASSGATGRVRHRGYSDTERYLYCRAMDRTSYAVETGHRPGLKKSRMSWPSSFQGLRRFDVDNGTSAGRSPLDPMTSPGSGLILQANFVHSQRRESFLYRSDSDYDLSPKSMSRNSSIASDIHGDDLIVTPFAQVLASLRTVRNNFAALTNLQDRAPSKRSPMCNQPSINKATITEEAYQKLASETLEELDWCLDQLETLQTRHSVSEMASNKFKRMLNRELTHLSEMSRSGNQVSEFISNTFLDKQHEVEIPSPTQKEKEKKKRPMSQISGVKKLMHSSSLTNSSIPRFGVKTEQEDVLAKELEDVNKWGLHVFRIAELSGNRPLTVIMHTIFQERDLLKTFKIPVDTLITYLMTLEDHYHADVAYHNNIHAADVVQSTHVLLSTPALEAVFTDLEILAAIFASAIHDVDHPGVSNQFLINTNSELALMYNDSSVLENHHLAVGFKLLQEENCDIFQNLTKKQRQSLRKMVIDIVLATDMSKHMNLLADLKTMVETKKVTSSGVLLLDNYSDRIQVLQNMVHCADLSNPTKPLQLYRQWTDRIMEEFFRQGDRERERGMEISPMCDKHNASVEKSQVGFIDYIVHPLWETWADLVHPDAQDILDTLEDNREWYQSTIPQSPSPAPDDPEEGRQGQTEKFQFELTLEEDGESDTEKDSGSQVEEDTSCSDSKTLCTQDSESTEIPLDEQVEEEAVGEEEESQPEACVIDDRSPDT
compound,measurement,setting,value
O=C(Nc1c(Cl)cncc1Cl)c1ccc(OC(F)F)c(OCC2CC2)c1,Activity,Rattus norvegicus [1],Active
same,Activity,Rattus norvegicus [2],Active
COc1cc2c(cc1OC)[C@@H]1CN(C)CC[C@@H]1N=C2c1ccc(NS(=O)(=O)c2ccc(C)cc2)cc1,IC50,[3],30 nM
COc1cc(Nc2c(C#N)cnc3cc(OCCCN4CCN(C)CC4)c(OC)cc23)c(Cl)cc1Cl,Activity,Rattus norvegicus [4],Active
same,Activity,Rattus norvegicus [5],Active
same,Activity,Rattus norvegicus [6],Active
same,Activity,Rattus norvegicus [7],Active
COc1ccc([C@]2(C#N)CC[C@@H](C(=O)O)CC2)cc1OC1CCCC1,Activity,Rattus norvegicus [8],Active
same,Activity,Rattus norvegicus [9],Active
CC(C)C[C@H](CN)CC(=O)O,Activity,Rattus norvegicus [4],Active
Nc1ncnc2c1ncn2CCOCP(=O)(O)O,Activity,Rattus norvegicus [10],Active
same,Activity,Rattus norvegicus [11],Active
same,Activity,Rattus norvegicus [12],Active
same,Activity,Rattus norvegicus [13],Active
COc1ccc2c(c1)c(CC(=O)O)c(C)n2C(=O)c1ccc(Cl)cc1,Activity,Rattus norvegicus [14],Active
COc1cc(-c2ccc(=O)[nH]n2)ccc1OC(F)F,Activity,Rattus norvegicus [10],Active
same,Activity,Rattus norvegicus [12],Active
C[C@H](Cn1cnc2c(N)ncnc21)OCP(=O)(O)O,Activity,Rattus norvegicus [15],Active
same,Activity,Rattus norvegicus [16],Active
same,Activity,Rattus norvegicus [17],Active
same,Activity,Rattus norvegicus [18],Active
